Data reported in ChEMBL document CHEMBL3885881, “DrugMatrix”.

Organism: Rattus norvegicus
Assay: DrugMatrix - Regimen: Daily Repeat
Format: toxicity, organism-based, Sprague-Dawley
Set-up: regimen Daily Repeat, gender Male, age 6-8 weeks
Conditions: in vivo, po, route oral GAVAGE, vehicle .5 % CMC; for ABSOLUTE BASOPHIL / ABSOLUTE EOSINOPHIL / ABSOLUTE LYMPHOCYTE / ABSOLUTE MONOCYTE / ABSOLUTE SEGMENTED NEUTROPHIL / BASOPHIL / EOSINOPHIL / ERYTHROCYTE COUNT / HEMATOCRIT / HEMOGLOBIN / LEUKOCYTE COUNT / LYMPHOCYTE / MEAN CORPUSCULAR HEMOGLOBIN / MEAN CORPUSCULAR HEMOGLOBIN CONCENTRATION / MEAN CORPUSCULAR VOLUME / MONOCYTE / NEUTROPHIL / NUCLEATED RED BLOOD CELLS / PLATELET COUNT: tissue Blood; for ALANINE AMINOTRANSFERASE / ALBUMIN / ALKALINE PHOSPHATASE / ASPARTATE AMINOTRANSFERASE / BLOOD UREA NITROGEN / CARBON DIOXIDE / CHLORIDE / CHOLESTEROL / CREATINE PHOSPHOKINASE / CREATININE / GLUCOSE / LACTATE DEHYDROGENASE / LIPASE / PHOSPHORUS / POTASSIUM / SODIUM / TOTAL BILIRUBIN / TOTAL PROTEIN / URIC ACID: tissue Plasma
[1] = 75 mg/kg, 120 h, dose level High, time 5 day
[2] = […], 72 h, dose 7.5 mg/Kg, dose level Low, time 3 day
[3] = […], 120 h, dose 7.5 mg/Kg, dose level Low, time 5 day

Cc1ccc(/N=C/N(C)/C=N/c2ccc(C)cc2C)c(C)c1 [AMITRAZ]
ABSOLUTE BASOPHIL [1]: 0 CELLS/uL | ABSOLUTE EOSINOPHIL [1]: 78.67 CELLS/uL | ABSOLUTE LYMPHOCYTE [1]: 10570.33 CELLS/uL | ABSOLUTE MONOCYTE [1]: 41.33 CELLS/uL | ABSOLUTE SEGMENTED NEUTROPHIL [1]: 1409.67 CELLS/uL | BASOPHIL [1]: 0% | EOSINOPHIL [1]: 0.67% | ERYTHROCYTE COUNT [1]: 6.55 x10E6/uL | HEMATOCRIT [1]: 40.27% | HEMOGLOBIN [1]: 16.2 G/DL | LEUKOCYTE COUNT [1]: 12.1 x10E3/uL | LYMPHOCYTE [1]: 87.33% | MEAN CORPUSCULAR HEMOGLOBIN [1]: 24.73 pg | MEAN CORPUSCULAR HEMOGLOBIN CONCENTRATION [1]: 40.2 G/DL | MEAN CORPUSCULAR VOLUME [1]: 61.53 fL | MONOCYTE [1]: 0.33% | NEUTROPHIL [1]: 11.67% | NUCLEATED RED BLOOD CELLS [1]: 0 /100WBC | PLATELET COUNT [1]: 1330 x10E3/uL | ALANINE AMINOTRANSFERASE [1]: 42.33 u/L | ALBUMIN [1]: 4.3 G/DL | ALKALINE PHOSPHATASE [1]: 203.33 u/L | ASPARTATE AMINOTRANSFERASE [1]: 91.33 u/L | BLOOD UREA NITROGEN [1]: 18.67 mg/dL | CARBON DIOXIDE [1]: 21.67 mmol/L | CHLORIDE [1]: 104.33 MEQ/L | CHOLESTEROL [1]: 74 mg/dL | CREATINE PHOSPHOKINASE [1]: 460.67 u/L | CREATININE [1]: 0.26 mg/dL | GLUCOSE [1]: 172 mg/dL | LACTATE DEHYDROGENASE [1]: 250.67 u/L | LIPASE [1]: 11.67 u/L | PHOSPHORUS [1]: 15.2 mg/dL | POTASSIUM [1]: 7.47 MEQ/L | SODIUM [1]: 148.4 MEQ/L | TOTAL BILIRUBIN [1]: 0.2 mg/dL | TOTAL PROTEIN [1]: 6.17 G/DL | URIC ACID [1]: 2.83 mg/dL | ABSOLUTE BASOPHIL [2]: 0 CELLS/uL | ABSOLUTE EOSINOPHIL [2]: 136 CELLS/uL | ABSOLUTE LYMPHOCYTE [2]: 19510 CELLS/uL | ABSOLUTE MONOCYTE [2]: 209.33 CELLS/uL | ABSOLUTE SEGMENTED NEUTROPHIL [2]: 1444.67 CELLS/uL | BASOPHIL [2]: 0% | EOSINOPHIL [2]: 0.67% | ERYTHROCYTE COUNT [2]: 5.3 x10E6/uL | HEMATOCRIT [2]: 33.37% | HEMOGLOBIN [2]: 13.33 G/DL | LEUKOCYTE COUNT [2]: 21.3 x10E3/uL | LYMPHOCYTE [2]: 91.33% | MEAN CORPUSCULAR HEMOGLOBIN [2]: 25.17 pg | MEAN CORPUSCULAR HEMOGLOBIN CONCENTRATION [2]: 39.97 G/DL | MEAN CORPUSCULAR VOLUME [2]: 63.07 fL | MONOCYTE [2]: 1% | NEUTROPHIL [2]: 7% | NUCLEATED RED BLOOD CELLS [2]: 0.33 /100WBC | PLATELET COUNT [2]: 1400.67 x10E3/uL | ALANINE AMINOTRANSFERASE [2]: 46.33 u/L | ALBUMIN [2]: 4.13 G/DL | ALKALINE PHOSPHATASE [2]: 272 u/L | ASPARTATE AMINOTRANSFERASE [2]: 87.67 u/L | BLOOD UREA NITROGEN [2]: 17.33 mg/dL | CARBON DIOXIDE [2]: 25.33 mmol/L | CHLORIDE [2]: 103.33 MEQ/L | CHOLESTEROL [2]: 75.67 mg/dL | CREATINE PHOSPHOKINASE [2]: 199.33 u/L | CREATININE [2]: 0.22 mg/dL | GLUCOSE [2]: 185.67 mg/dL | LACTATE DEHYDROGENASE [2]: 127 u/L | LIPASE [2]: 8.67 u/L | PHOSPHORUS [2]: 11.97 mg/dL | POTASSIUM [2]: 6.06 MEQ/L | SODIUM [2]: 144.17 MEQ/L | TOTAL BILIRUBIN [2]: 0.23 mg/dL | TOTAL PROTEIN [2]: 5.7 G/DL | URIC ACID [2]: 2.07 mg/dL | ABSOLUTE BASOPHIL [3]: 0 CELLS/uL | ABSOLUTE EOSINOPHIL [3]: 0 CELLS/uL | ABSOLUTE LYMPHOCYTE [3]: 13348 CELLS/uL | ABSOLUTE MONOCYTE [3]: 98 CELLS/uL | ABSOLUTE SEGMENTED NEUTROPHIL [3]: 1187.33 CELLS/uL | BASOPHIL [3]: 0% | EOSINOPHIL [3]: 0% | ERYTHROCYTE COUNT [3]: 5.41 x10E6/uL | HEMATOCRIT [3]: 34.03% | HEMOGLOBIN [3]: 13.6 G/DL | LEUKOCYTE COUNT [3]: 14.63 x10E3/uL | LYMPHOCYTE [3]: 91.33% | MEAN CORPUSCULAR HEMOGLOBIN [3]: 25.17 pg | MEAN CORPUSCULAR HEMOGLOBIN CONCENTRATION [3]: 39.93 G/DL | MEAN CORPUSCULAR VOLUME [3]: 63.03 fL | MONOCYTE [3]: 0.67% | NEUTROPHIL [3]: 8% | NUCLEATED RED BLOOD CELLS [3]: 0.33 /100WBC | PLATELET COUNT [3]: 1467.33 x10E3/uL | ALANINE AMINOTRANSFERASE [3]: 52.67 u/L | ALBUMIN [3]: 4.13 G/DL | ALKALINE PHOSPHATASE [3]: 370.67 u/L | ASPARTATE AMINOTRANSFERASE [3]: 78.67 u/L | BLOOD UREA NITROGEN [3]: 18 mg/dL | CARBON DIOXIDE [3]: 30.67 mmol/L | CHLORIDE [3]: 99.67 MEQ/L | CHOLESTEROL [3]: 63 mg/dL | CREATINE PHOSPHOKINASE [3]: 265.67 u/L | CREATININE [3]: 0.18 mg/dL | GLUCOSE [3]: 137.33 mg/dL | LACTATE DEHYDROGENASE [3]: 130 u/L | LIPASE [3]: 9 u/L | PHOSPHORUS [3]: 11.77 mg/dL | POTASSIUM [3]: 6.67 MEQ/L | SODIUM [3]: 143.1 MEQ/L | TOTAL BILIRUBIN [3]: 0.2 mg/dL | TOTAL PROTEIN [3]: 5.9 G/DL | URIC ACID [3]: 1.83 mg/dL
